Molecular target: T1, RORγ (RORγt) ligand-binding domain (Homo sapiens, UniProt P51449)
T1 construct: gene RORC
T1 sequence (P51449 265-507 limits assumed): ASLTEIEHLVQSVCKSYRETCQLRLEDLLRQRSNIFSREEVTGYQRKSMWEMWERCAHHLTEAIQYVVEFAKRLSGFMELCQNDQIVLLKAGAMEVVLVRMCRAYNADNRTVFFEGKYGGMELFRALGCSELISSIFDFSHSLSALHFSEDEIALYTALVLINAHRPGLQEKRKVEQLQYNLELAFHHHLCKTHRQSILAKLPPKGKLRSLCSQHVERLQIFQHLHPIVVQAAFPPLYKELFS
Experiment: Kd for human RORγ LBD (binding method not stated); also RORγ LBD reporter assay IC50 […]

- Kd: 65 nM
Substance: BI119

— paper PMC6204372, “An RORγt Oral Inhibitor Modulates IL-17 Responses in Peripheral Blood and Intestinal Mucosa of Crohn's Disease Patients” (Frontiers in Immunology, 2018)
